Results: patent US20260209210A1, “NEW SUBSTITUTED INDOLE-2-CARBOXAMIDES AS PHGDH INHIBITORS” (Boehringer Ingelheim International GmbH, priority 2022, published 2026)

Tests used:
[1] = Drug transport across human Caco-2 cells (permeability); assay type: in vitro ADME; details: pH 7.2, 37° C.; for Papp A→B: apical-to-basal (absorptive) apparent permeability across Caco-2 monolayers, read-out: PEAB; for Papp B→A: basal-to-apical (secretory) apparent permeability across Caco-2 monolayers, read-out: PEBA; for efflux ratio: PEBA/PEAB, Caco-2 monolayers
Method: The assay provides information on the potential of a compound to pass the cell membrane, on the extent of oral absorption as well as on whether the compound is actively transported by uptake and/or efflux transporters. Permeability measurements across polarized, confluent Caco-2 cell monolayers grown on permeable filter supports are used as the in vitro absorption model. Apparent permeability coefficients (PE) of the compounds across the Caco-2 monolayers are measured (pH 7.2, 37° C.) in apical-to-basal (AB) (absorptive) and basal-to-apical (BA) (secretory) transport direction. AB permeability (PEAB) represents drug absorption from the intestine into the blood and BA permeability (PEBA) drug secretion from the blood back into the intestine via both passive permeability as well as active transport mechanisms mediated by efflux and uptake transporters that are expressed on the Caco-2 cells. The compounds are assigned to permeability/absorption classes by comparison of the AB permeabilities with the AB permeabilities of reference compounds with known in vitro permeability and oral absorption in the human. Identical or similar permeabilities in both transport directions indicate passive permeation, vectorial permeability points to additional active transport mechanisms. […] Active transport is concentration-dependently saturable.
Caco-2 cells obtained from the Leibniz Institute DSMZ-German Collection of Microorganisms and Cell Cultures GmbH (1-2×10^5 cells/1 cm^2 area) are seeded on filter inserts (Costar transwell polycarbonate or PET filters, 0.4 μm pore size) and cultured (DMEM) for 10 to 25 days. Compounds are dissolved in appropriate solvent (like DMSO, 1-20 mM stock solutions). Stock solutions are diluted with HTP-4 buffer (128.13 mM NaCl, 5.36 mM KCl, 1 mM MgSO4, 1.8 mM CaCl2), 4.17 mM NaHCO3, 1.19 mM Na2HPO4×7H2O, 0.41 mM NaH2PO4×H2O, 15 mM HEPES, 20 mM glucose, pH 7.2) containing 0.25% BSA to prepare the transport solutions (0.1-300 μM compound, final DMSO≤0.5%). The transport solution (TL) is applied to the apical or basolateral donor side for measuring A-B or B-A permeability (3 filter replicates), respectively. The receiver side contains HTP-4 buffer supplemented with 0.25% BSA. Samples are collected at the start and end of experiment from the donor and at various time intervals (0, 30, 60, and 90 minutes) for up to 2 hours also from the receiver side for concentration measurement by HPLC-MS/MS or scintillation counting. Sampled receiver volumes are replaced with fresh receiver solution. Compounds are assigned to the following permeability/oral absorption classes: • Very low: […] • Low: 1×10^−7 cm/s<PEAB<6×10^−7 cm/sec • Moderate: 6×10^−7 cm/sec<PEAB<5×10^−6 cm/sec • Good: 5×10^−6 cm/s<[…]
Compounds are classified with respect to (permeability) efflux ratios (PEBA/PEAB) given below whether they are likely to be actively transported: • no: 0.67<=ratio <=1.5 • probable (active efflux): 1.5<ratio <=2 • probable (active uptake): […] • yes (active efflux): 2<ratio • yes (active uptake): ratio <0.5

PHGDH = biological target: T1, PHGDH (Homo sapiens, UniProt O43175); assay: 3-Phosphoglycerate dehydrogenase (PHGDH) Fluorescence Intensity Assay; assay type: biochemical; details: full length recombinant PHGDH, 500 μM NAD and 500 μM 3-PG, 240 minutes incubation, room temperature
T1 construct: The full length version of PHGDH enzyme was expressed in BL21 (DE3) E. coli; HIS-tag (N); TEV cleavage site (N); made in house; host or cells: E. coli BL21 (DE3)
T1 sequence (O43175 1-533): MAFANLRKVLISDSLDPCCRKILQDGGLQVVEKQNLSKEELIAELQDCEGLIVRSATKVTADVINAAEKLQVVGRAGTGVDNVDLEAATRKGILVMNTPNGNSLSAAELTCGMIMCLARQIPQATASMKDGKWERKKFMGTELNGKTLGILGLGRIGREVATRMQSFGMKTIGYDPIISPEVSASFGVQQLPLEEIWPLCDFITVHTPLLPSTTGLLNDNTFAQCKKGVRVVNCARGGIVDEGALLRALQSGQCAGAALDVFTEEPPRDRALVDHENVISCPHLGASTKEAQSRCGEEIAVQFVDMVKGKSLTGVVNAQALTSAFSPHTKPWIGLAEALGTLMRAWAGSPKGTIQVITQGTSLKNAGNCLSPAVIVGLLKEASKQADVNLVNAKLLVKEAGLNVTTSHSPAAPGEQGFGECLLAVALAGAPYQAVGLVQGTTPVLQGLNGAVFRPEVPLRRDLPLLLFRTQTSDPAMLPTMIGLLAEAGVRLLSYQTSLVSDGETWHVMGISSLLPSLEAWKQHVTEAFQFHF
Source text: 3-Phosphoglycerate dehydrogenase (PHGDH) Fluorescence Intensity Assay This assay is used to identify compounds which inhibit the enzymatic activity of PHGDH which catalyzes the reaction of 3-Phosphoglycerate (3-PG) and NAD to 3-Phosphohydroxypyruvate and NADH.
The produced NADH is used in a coupled reaction for Diaphorase mediated reduction of Resazurin to Resorufin which can be measured in a Fluorescence Intensity readout.
The full length version of PHGDH enzyme was expressed in BL21 (DE3) E. coli through transformation with a plasmid containing the PHGDH cDNA with an N-terminal HIS-tag and a TEV cleavage site. The recombinant protein was then isolated with Ni-NTA beads and eluted on MONO Q ion exchange chromatography columns. The fractions corresponding to PHGDH were de-salted and concentrated to be used in the biochemical assay.
The 3-phosphoglycerate substrate was purchased from Sigma. NAD, Diaphorase and Resazurin were purchased from Sigma Aldrich.
Compounds are dispensed onto assay plates (black, low volume, flat bottom 384 well, Corning) using an Access Labcyte Workstation with the Labcyte Echo 55× from a DMSO solution. For the chosen highest assay concentration of 100 μM, 150 nl of compound solution are transferred from a 10 mM DMSO compound stock solution. A series of 11 concentrations (10 1:5 steps) is transferred for each compound.
DMSO is added such that every well has a total of 150 nl compound solution.
The assay has been performed using 500 μM NAD and 500 μM 3-PG (final assay concentrations).
5 μl of PHGDH protein (final assay concentration 100 ng/ml) in assay buffer (125 mM Tris-HCl, pH 7.5; 56.25 mM hydrazine sulfate pH 9.0; 2.5 mM EDTA; assay specific NAD concentration; 0.0125% Tween20) are added to the 150 nl of compounds.
10 μl of a mix containing assay specific 3-PG concentration (500 μM), Resazurin (25 µM final assay concentration) and Diaphorase (35 μg/ml final assay concentration) are added. Plates are kept at room temperature. After 240 minutes incubation time the fluorescence signal is measured in a PerkinElmer Envision HTS Multilabel Reader with an excitation wavelength at 530-560 nm and an emission wavelength at 590 nm.
Each plate contains negative controls (diluted DMSO instead of test compound; reaction as described with PHGDH protein) and positive controls (diluted DMSO instead of test compound; reaction as described with buffer instead of PHGDH protein). Negative and positive control values are used for normalization.
A known inhibitor of PHGDH activity is used as internal control.
IC50 values are calculated and analyzed in the MEGALAB IC50 application using a 4 parametric logistic model.

Row | SMILES | Papp A→B [1] [×10⁻⁶ cm/s] | Papp B→A [1] [×10⁻⁶ cm/s] | efflux ratio [1] | IC50 (PHGDH) [nM]
1 | Cc1cc(Cl)c2cc(C(=O)N[C@H](C)c3ccc(S(=O)(=O)C4(C(=O)O)CCOCC4)cc3)n(C)c2c1 [Comp-1, reference compound] | < 0.4 | 0.2 |  | 
2 | Cc1cc(Cl)c2cc(C(=O)N[C@H](C)c3ccc(S(=O)(=O)C4(C(=O)O)CCCC4)cc3)n(C)c2c1 [Comp-2, reference compound] | 0.2 | 0.4 | 1.8 | 
3 | Cc1cc(Cl)c2cc(C(=O)N[C@H](C)c3ccc(S(=O)(=O)C4(C(=O)O)CC4)cc3)n(C)c2c1 [Comp-3, reference compound] | 0.1 | 1.7 | 17 | 
4 | Cc1cc2c(cc(C(=O)N[C@H](C)c3ccc(C4(C(=O)O)CCOCC4)cc3)n2C)c(Cl)c1Cl [Example 1] | 17.1 | 14.6 | 0.9 | 6
5 | Cc1cc2c(cc(C(=O)N[C@H](C)c3ccc(C4(C(=O)O)CCOCC4)cc3)n2C)c(F)c1Cl [Example 2] | 11 | 13 | 1.2 | 27

Other lines, results leading:

Row | Papp A→B [1] [×10⁻⁶ cm/s] | Papp B→A [1] [×10⁻⁶ cm/s] | efflux ratio [1] | IC50 (PHGDH) [nM] | SMILES
6 | 16 | 9.1 | 0.6 | 10 | Cc1cc2c(cc(C(=O)N[C@H](C)c3ccc(C4(C(=O)O)CCOCC4)cc3)n2C)c(Cl)c1F [Example 3]
7 | 12 | 9.2 | 0.8 | 31 | Cc1cc2c(cc(C(=O)N[C@H](C)c3ccc(C4(C(=O)O)CCOCC4)cc3)n2C)c(F)c1F [Example 4]
8 | 10 | 12 | 1.2 | 25 | Cc1cc(Cl)c2cc(C(=O)N[C@H](C)c3ccc(C4(C(=O)O)CCOCC4)cc3)n(C)c2c1 [Example 5]
9 | 7.9 | 8.4 | 1.1 | 943 | Cc1cc2c(cc1Cl)cc(C(=O)N[C@H](C)c1ccc(C3(C(=O)O)CCOCC3)cc1)n2C [Example 6]
